Experimental findings from patent publication US10077243B2, “Compounds for treating disorders mediated by metabotropic glutamate receptor 5, and methods of use thereof” (Sunovion Pharmaceuticals Inc., priority 2009, dated 2018) are described below.

Each structure is given as a SMILES string.

T1 sequence (P41594 21-1212): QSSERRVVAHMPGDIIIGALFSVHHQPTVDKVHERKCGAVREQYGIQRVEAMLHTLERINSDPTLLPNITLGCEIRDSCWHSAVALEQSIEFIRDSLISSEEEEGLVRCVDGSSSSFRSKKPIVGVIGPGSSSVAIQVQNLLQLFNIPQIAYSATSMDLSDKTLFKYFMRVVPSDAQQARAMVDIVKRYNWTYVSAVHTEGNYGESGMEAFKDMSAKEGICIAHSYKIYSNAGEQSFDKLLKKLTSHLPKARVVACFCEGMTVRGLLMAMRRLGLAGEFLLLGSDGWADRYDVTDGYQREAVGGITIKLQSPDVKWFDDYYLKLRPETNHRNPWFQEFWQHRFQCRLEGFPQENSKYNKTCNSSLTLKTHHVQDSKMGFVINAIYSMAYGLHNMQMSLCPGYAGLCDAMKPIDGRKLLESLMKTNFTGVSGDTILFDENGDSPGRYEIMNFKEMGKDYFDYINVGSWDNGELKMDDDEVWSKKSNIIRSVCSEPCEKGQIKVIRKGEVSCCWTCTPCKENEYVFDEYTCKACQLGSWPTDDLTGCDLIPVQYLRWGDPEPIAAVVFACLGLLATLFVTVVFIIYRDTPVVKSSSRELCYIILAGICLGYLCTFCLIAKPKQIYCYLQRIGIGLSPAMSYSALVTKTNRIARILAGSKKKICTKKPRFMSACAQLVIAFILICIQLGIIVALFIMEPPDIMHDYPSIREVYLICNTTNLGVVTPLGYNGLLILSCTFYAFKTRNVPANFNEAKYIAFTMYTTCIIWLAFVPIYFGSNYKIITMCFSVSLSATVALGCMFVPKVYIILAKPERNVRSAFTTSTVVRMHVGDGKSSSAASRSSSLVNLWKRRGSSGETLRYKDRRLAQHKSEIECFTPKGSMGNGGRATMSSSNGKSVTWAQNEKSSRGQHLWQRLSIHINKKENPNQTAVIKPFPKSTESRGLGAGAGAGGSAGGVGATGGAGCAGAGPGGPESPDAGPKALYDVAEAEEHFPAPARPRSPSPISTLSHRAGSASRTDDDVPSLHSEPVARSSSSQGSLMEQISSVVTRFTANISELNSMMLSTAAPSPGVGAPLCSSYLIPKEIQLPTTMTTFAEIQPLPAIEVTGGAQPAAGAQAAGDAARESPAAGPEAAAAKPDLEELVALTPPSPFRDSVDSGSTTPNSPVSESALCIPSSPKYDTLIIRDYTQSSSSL

This assay concerns the target T1, human mGluR5 (Homo sapiens, UniProt P41594).
T1 construct: expressed in transfected cells; host or cells: HEK293 cells stably expressing rat GLAST (EAAT1), stably transfected with pcDNAzeo3.1 carrying synthetic human mGluR5 DNA; zeocin-selected single clones
The assay is described as follows: In vitro cell-based FLIPR calcium assay for positive modulation of the activation of mGluR5 by glutamate (PAM EC50). The note with it: HEK293/GLAST cells expressing recombinant human mGluR5; FLIPR calcium signal; glutamate added at its EC20; read-out: mGluR5 PAM EC50. From the text: The DNA sequences encoding the structural regions for rat mGluR5 [Abe T, Sugihara H, Nawa H, Shigemoto R, Mizuno N, Nakanishi S (1992) “Molecular characterization of a novel metabotropic glutamate receptor mGluR5 coupled to inositol phosphate/Ca^2+ signal transduction” Journal of Biological Chemistry vol. 267, no. 19, pp. 13361-8] and human mGluR5 [Daggett L P, Sacaan A I, Akong M, Rao S P, Hess S D, Liaw C, Urrutia A, Jachec C, Ellis S B, Dreessen J, Knöpfel T, Landwehrmeyer G B, Testa C M, Young A B, Varney M, Johnson E C, Veliçelebi (1995) “Molecular and functional characterization of recombinant human metabotropic glutamate receptor subtype 5” Neuropharmacology vol. 34, no. […] 53, no. 3, pp. 355-369] was obtained from Dr. Michael Robinson of the Children's Hospital of Philadelphia under a Material Transfer Agreement. The pcDNAzeo3.1 vector DNA, carrying either rat mGluR5 or human mGluR5, was used to transfect a sample of the HEK293/GLAST cells, and single clones that express mGluR5 were isolated from the transfected cells using zeocin selection. Expression of mGluR5 was assessed by measurement of the transient fluorescence signal elicited from HEK293/GLAST/mGluR5 cells by glutamate following the loading of the cells with a calcium-sensitive dye using a FLIPR Tetra (Fluorometric Imaging Plate Reader) (Molecular Devices, Sunnyvale, Calif.) [O'Brien J A, Lemaire W, Chen T B, Chang R S, Jacobson M A, Ha S N, Lindsley C W, Schaffhauser H J, Sur C, Pettibone D J, Conn P J, Williams D L Jr. […] 64, no. 3, pp. 731-740; Assay Guidance Manual Version 5.0, 2008, Eli Lilly and Company and NIH Chemical Genomics Center; available online HEK293/GLAST/mGluR5 cells were grown in Dulbecco's Modified Eagle Medium (DMEM) supplemented with 10% dialyzed fetal bovine serum, 20 millimolar (mM) N-2-hydroxyethylpiperazine-N′-2-ethanesulfonic acid (HEPES), penicillin, streptomycin, 1% GlutaMax™ (Invitrogen) and 50 μg/ml zeocin. Cells were grown in the media to 70-80% confluency at 37° C. under 5% CO2, 95% humidity in poly-D-lysine coated coated flasks. Cells for assays were plated into 96-well sterile standard microtiter plates (pre-coated with poly-D-lysine) at a density of 50,000 cells per well in 0.2 milliliters of media. Plated cells were allowed to settle and adhere for 30 minutes at ambient conditions, and then were incubated overnight at 37° C. under 5% CO2, 95% humidity. Several such 96-well plates were typically prepared. On the day of the assays, the components of the FLIPR calcium 4 assay kit (Molecular Devices) were dissolved according to the instructions of the dye kit's manufacturer in assay buffer (Hank's balanced salt solution (HBSS) (Gibco) supplemented with 20 mM HEPES). After removal of the growth media from the first plate, cells were loaded with calcium dye by addition of calcium dye solution (50 microliters per well) and incubation at 25° C. for 45 to 60 minutes. The first plate was placed into the FLIPR Tetra, and a dilution series of glutamate solutions in assay buffer were added to wells on the plate, followed by acquisition of fluorescence data for several minutes. The fluorescence data (maximal signal as a 4-parameter sigmoidal function of log [glutamate]) were processed by non-linear regression methods using the software package GraphPad Prism 5.01 (GraphPad Software Inc.), to yield a glutamate concentration-response curve (CRC). […] These values were, respectively, the concentrations of glutamate that elicit 20%, 50%, and 80% of the maximal FLIPR signal (observed at saturating [glutamate]). The method for measuring the concentration response of a potentiator, or positive allosteric modulator (PAM), is described here as an example. For that purpose, subsequent assays were typically performed using assay buffer containing a glutamate concentration equal to that day's EC20. […] Addition to certain wells of the same buffer containing 0.3% DMSO, but without any test compound, provided a negative control.
Turning to `O=c1c2ccc(C#Cc3ccc(F)cc3)cc2ncn1Cc1ccco1` [Example 1.14, 7-((4-fluorophenyl)ethynyl)-3-(furan-2-ylmethyl)quinazolin-4(3H)-one], the EC50 lay in the range of 300 to 1000 nM.
For `COCCn1cnc2cc(C#Cc3ccncc3)ccc2c1=O` [Example 1.17, 3-(2-methoxyethyl)-7-(pyridin-4-ylethynyl)quinazolin-4(3H)-one], the EC50 was 100 to 300 nM.
Turning to `CCC(C)n1cnc2cc(C#Cc3cccc(F)c3)ccc2c1=O` (stereo not shown) [Example 1.19, 3-(sec-butyl)-7-((3-fluorophenyl)ethynyl)quinazolin-4(3H)-one], the EC50 was less than 10 nM.
Take `CC(C)Cn1cnc2cc(C#Cc3cccc(F)c3)ccc2c1=O` [Example 1.20, 7-((3-fluorophenyl)ethynyl)-3-isobutylquinazolin-4(3H)-one]: the EC50 is 30 to 100 nM.
As to `CN1CCCC1Cn1cnc2cc(C#Cc3cccc(F)c3)ccc2c1=O` (stereo not shown) [Example 1.21, 7-((3-fluorophenyl)ethynyl)-3-((1-methylpyrrolidin-2-yl)methyl)quinazolin-4(3H)-one], the EC50 was in the range of 100 to 300 nM.
With `COCCc1nc2cc(C#Cc3cccc(F)c3)ccc2c(=O)n1C` [Example 2.1, 7-((3-fluorophenyl)ethynyl)-2-(2-methoxyethyl)-3-methylquinazolin-4(3H)-one] the figure was less than 10 nM.
With `Cn1c(C2CCOC2)nc2cc(C#Cc3cccc(F)c3)ccc2c1=O` (stereo not shown) [Example 2.2, 7-((3-fluorophenyl)ethynyl)-3-methyl-2-(tetrahydrofuran-3-yl)quinazolin-4(3H)-one] the figure was 300 to 1000 nM.
As for `Cn1c(C2CCCO2)nc2cc(C#Cc3cccc(F)c3)ccc2c1=O` (stereo not shown) [Example 2.3, 7-((3-fluorophenyl)ethynyl)-3-methyl-2-(tetrahydrofuran-2-yl)quinazolin-4(3H)-one], the figure is 300 to 1000 nM; as for `CN1CCCC1c1nc2cc(C#Cc3cccc(F)c3)ccc2c(=O)n1C` (stereo not shown) [Example 2.4, 7-((3-fluorophenyl)ethynyl)-3-methyl-2-(1-methylpyrrolidin-2-yl)quinazolin-4(3H)-one], 100 to 300 nM; as for `Cn1c(CN2CCCC2)nc2cc(C#Cc3cccc(F)c3)ccc2c1=O` [Example 2.6, 7-((3-fluorophenyl)ethynyl)-3-methyl-2-(pyrrolidin-1-ylmethyl)quinazolin-4(3H)-one], 100 to 300 nM.
As for `CN(C)Cc1nc2cc(C#Cc3cccc(F)c3)ccc2c(=O)n1C` [Example 2.7, 2-((dimethylamino)methyl)-7-((3-fluorophenyl)ethynyl)-3-methylquinazolin-4(3H)-one], the EC50 was in the range of 30 to 100 nM.
Take `CN1CCOCC1c1nc2cc(C#Cc3cccc(F)c3)ccc2c(=O)n1C` (stereo not shown) [Example 2.9, 7-((3-fluorophenyl)ethynyl)-3-methyl-2-(4-methylmorpholin-3-yl)quinazolin-4(3H)-one]: the EC50 is less than 10 nM.
As for `COC(C)c1nc2cc(C#Cc3cccc(F)c3)ccc2c(=O)n1C` (stereo not shown) [Example 2.11, 7-((3-fluorophenyl)ethynyl)-2-(1-methoxyethyl)-3-methylquinazolin-4(3H)-one], the figure is less than 10 nM.
On to `CC(C)Cc1nc2cc(C#Cc3cccc(F)c3)ccc2c(=O)n1C` [Example 2.12, 7-((3-fluorophenyl)ethynyl)-2-isobutyl-3-methylquinazolin-4(3H)-one], for which the EC50 was in the range of 30 to 100 nM.
Take `COCCc1nc2cc(C#Cc3cccc(F)c3)ccc2c(=O)[nH]1` [Example 2.13, 7-((3-fluorophenyl)ethynyl)-2-(2-methoxyethyl)quinazolin-4(3H)-one]: the EC50 fell in the range of 100 to 300 nM.
With `CCC(C)c1nc2cc(C#Cc3cccc(F)c3)ccc2c(=O)n1C` (stereo not shown) [Example 2.14, 2-(sec-butyl)-7-((3-fluorophenyl)ethynyl)-3-methylquinazolin-4(3H)-one] the figure was 300 to 1000 nM; with `COCc1nc2cc(C#Cc3cccc(F)c3)ccc2c(=O)n1C` [Example 2.18, 7-((3-fluorophenyl)ethynyl)-2-(methoxymethyl)-3-methylquinazolin-4(3H)-one], 10 to 30 nM.
With `CC(c1nc2cc(C#Cc3ccccn3)ccc2c(=O)n1C)N(C)C` (stereo not shown) [Example 2.21, 2-(1-(dimethylamino)ethyl)-3-methyl-7-(pyridin-2-ylethynyl)quinazolin-4(3H)-one] the figure was 100 to 300 nM.
For `CC(C)N(C)C(C)c1nc2cc(C#Cc3ccccn3)ccc2c(=O)n1C` (stereo not shown) [Example 2.22, 2-(1-(isopropyl(methyl)amino)ethyl)-3-methyl-7-(pyridin-2-ylethynyl)quinazolin-4(3H)-one], the EC50 fell in the range of 300 to 1000 nM.
`CC(c1nc2cc(C#Cc3ccccn3)ccc2c(=O)n1C)N(C)C1CCC1` (stereo not shown) [Example 2.23, 2-(1-(cyclobutyl(methyl)amino)ethyl)-3-methyl-7-(pyridin-2-ylethynyl)quinazolin-4(3H)-one]: the EC50 is 300 to 1000 nM.
With `O=c1c2ccc(C#Cc3cccc(F)c3)cc2nc2n1CCC2` [Example 3.1, 6-((3-fluorophenyl)ethynyl)-2,3-dihydropyrrolo[2,1-b]quinazolin-9(1H)-one], the EC50 is less than 10 nM.
As to `CN(C)CC1CCc2nc3cc(C#Cc4cccc(F)c4)ccc3c(=O)n21` (stereo not shown) [Example 3.4, 1-((dimethylamino)methyl)-6-((3-fluorophenyl)ethynyl)-2,3-dihydropyrrolo[2,1-b]quinazolin-9(1H)-one], the EC50 was 100 to 300 nM.
As to `O=c1c2ccc(C#Cc3cccc(F)c3)cc2nc2n1C(CO)CC2` (stereo not shown) [Example 3.5, 6-((3-fluorophenyl)ethynyl)-1-(hydroxymethyl)-2,3-dihydropyrrolo[2,1-b]quinazolin-9(1H)-one], the EC50 fell in the range of 30 to 100 nM.
Consider `COCC1CCc2nc3cc(C#Cc4cccc(F)c4)ccc3c(=O)n21` (stereo not shown) [Example 3.6, 6-((3-fluorophenyl)ethynyl)-1-(methoxymethyl)-2,3-dihydropyrrolo[2,1-b]quinazolin-9(1H)-one], for which the EC50 was less than 10 nM.
As for `COCC1CCc2nc3cc(C#Cc4ccccn4)ccc3c(=O)n21` (stereo not shown) [Example 3.7, 1-(methoxymethyl)-6-(pyridin-2-ylethynyl)-2,3-dihydropyrrolo[2,1-b]quinazolin-9(1H)-one], the figure is 30 to 100 nM.
With `CC1Cc2nc3cc(C#Cc4cccc(F)c4)ccc3c(=O)n2C1` (stereo not shown) [Example 3.8] the figure was less than 10 nM.
As for `CC(C)CC1Cc2nc3cc(C#Cc4cccc(F)c4)ccc3c(=O)n2C1` (stereo not shown) [Example 3.9, 6-((3-fluorophenyl)ethynyl)-2-isobutyl-2,3-dihydropyrrolo[2,1-b]quinazolin-9(1H)-one], the figure is 10 to 30 nM; as for `O=c1c2ccc(C#Cc3cccc(F)c3)cc2nc2n1CC(Cc1ccccc1)C2` (stereo not shown) [Example 3.10], less than 10 nM.
As to `CC1Cc2nc3cc(C#Cc4ccccn4)ccc3c(=O)n2C1` (stereo not shown) [Example 3.11, 2-methyl-6-(pyridin-2-ylethynyl)-2,3-dihydropyrrolo[2,1-b]quinazolin-9(1H)-one], the EC50 is 10 to 30 nM.
For `CC1CCc2nc3cc(C#Cc4ccccn4)ccc3c(=O)n21` (stereo not shown) [Example 3.14, 1-methyl-6-(pyridin-2-ylethynyl)-2,3-dihydropyrrolo[2,1-b]quinazolin-9(1H)-one], the EC50 was 100 to 300 nM.
With `CN1CCCCC12Cc1nc3cc(C#Cc4cccc(F)c4)ccc3c(=O)n1C2` (stereo not shown) [Example 3.16, 6′-((3-fluorophenyl)ethynyl)-1-methyl-1′H-spiro[piperidine-2,2′-pyrrolo[2,1-b]quinazolin]-9′(3′ H)-one] the figure was 100 to 300 nM.
